# Legend:
# [1] = system: DIGSA; experiment: greenhouse post-emergence herbicidal activity; assay type: in vivo, Digitaria sanguinales; details: scale 0 to 100
# Source text: (§1) The culture containers used were plastic flowerpots containing loamy sand with approximately 3.0% of humus as the substrate. The seeds of the test plants were sown separately for each species.
# (§2) For the post-emergence treatment, the test plants were first grown to a height of 3 to 15 cm, depending on the plant habit, and only then treated with the active ingredients which had been suspended or emulsified in water. For this purpose, the test plants were either sown directly and grown in the same containers, or they were first grown separately as seedlings and transplanted into the test containers a few days prior to treatment.
# (§3) Depending on the species, the plants were kept at 10-25° C. or 20-35° C. The test period extended over 2 to 4 weeks. During this time, the plants were tended, and their response to the individual treatments was evaluated.
# (§4) Evaluation was carried out using a scale from 0 to 100. 100 means no emergence of the plants, or complete destruction of at least the aerial moieties, and 0 means no damage, or normal course of growth. A good herbicidal activity is given at values of at least 70 and a very good herbicidal activity is given at values of at least 85.
# [2] = system: BRAPL; experiment: greenhouse post-emergence herbicidal activity; assay type: in vivo, Brachiaria plantaginea; details: scale 0 to 100
# Source text: as §1, §2, §3, §4
# [3] = system: SETFA; experiment: greenhouse post-emergence herbicidal activity; assay type: in vivo, Setaria faberi; details: scale 0 to 100
# Source text: as §1, §2, §3, §4
# [4] = system: ABUTH; experiment: greenhouse pre-emergence herbicidal activity; assay type: in vivo, Abutilon theophrasti; details: scale 0 to 100
# Source text: as §1
# (§5) For the pre-emergence treatment, the active ingredients, which had been suspended or emulsified in water, were applied directly after sowing by means of finely distributing nozzles. The containers were irrigated gently to promote germination and growth and subsequently covered with transparent plastic hoods until the plants had rooted. This cover caused uniform germination of the test plants, unless this has been impaired by the active ingredients.
# as §3, §4
# [5] = system: PANDI; experiment: greenhouse pre-emergence herbicidal activity; assay type: in vivo, Panicum dichotomiflorun; details: scale 0 to 100
# Source text: as §1, §5, §3, §4
# [6] = system: SETVI; experiment: greenhouse post-emergence herbicidal activity; assay type: in vivo, Setaria viridis; details: scale 0 to 100
# Source text: as §1, §2, §3, §4
# [7] = system: ECHCG; experiment: greenhouse post-emergence herbicidal activity; assay type: in vivo, Echinocloa crus-galli; details: scale 0 to 100
# Source text: as §1, §2, §3, §4
# [8] = system: STEME; experiment: greenhouse pre-emergence herbicidal activity; assay type: in vivo, Stellaria media; details: scale 0 to 100
# Source text: as §1, §5, §3, §4
# [9] = system: SETVI; experiment: greenhouse pre-emergence herbicidal activity; assay type: in vivo, Setaria viridis; details: scale 0 to 100
# Source text: as §1, §5, §3, §4
# [10] = system: LAMAM; experiment: greenhouse pre-emergence herbicidal activity; assay type: in vivo, Lamium amplexicaule; details: scale 0 to 100
# Source text: as §1, §5, §3, §4
# [11] = system: Amaranthus retroflexus; experiment: greenhouse pre-emergence herbicidal activity; assay type: in vivo; details: 6.25 g/ha, pre-emergence method
# Source text: as §1, §5, §3, §4
# [12] = system: Erigeron canadensis; experiment: greenhouse pre-emergence herbicidal activity; assay type: in vivo; details: 6.25 g/ha, pre-emergence method
# Source text: as §1, §5, §3, §4
# [13] = system: Pharbitis purpurea; experiment: greenhouse post-emergence herbicidal activity; assay type: in vivo; details: 6.25 g/ha, post-emergence method
# Source text: as §1, §2, §3, §4
# [14] = system: Abutilon theophrasti; experiment: greenhouse post-emergence herbicidal activity; assay type: in vivo; details: 6.25 g/ha, post-emergence method
# Source text: as §1, §2, §3, §4
# [15] = system: Ambrosia elatior; experiment: greenhouse post-emergence herbicidal activity; assay type: in vivo; details: 6.25 g/ha, post-emergence method
# Source text: as §1, §2, §3, §4
# [16] = system: Chenopodium album; experiment: greenhouse post-emergence herbicidal activity; assay type: in vivo; details: 6.25 g/ha, post-emergence method
# Source text: as §1, §2, §3, §4
smiles,measurement,setting,value
"Cc1cnc(C2=NC(=O)C(C)(C(C)C)N2)c(C(=O)O)c1 (stereo not drawn) [B.30, imazapic, reference compound]",herbicidal activity against DIGSA found,[1]; B.30 10 g/ha a.s.,85
same,herbicidal activity against BRAPL found,[2]; B.30 10 g/ha a.s.,70
"CC(C)N(C)S(=O)(=O)NC(=O)c1cc(-n2c(=O)cc(C(F)(F)F)n(C)c2=O)c(F)cc1Cl [B.76, saflufenacil, reference compound]",herbicidal activity against SETFA found,[3]; B.76 12.5 g/ha a.s.,30
same,herbicidal activity against ABUTH found,[4]; B.76 6.25 g/ha a.s.,75
same,herbicidal activity against PANDI found,[5]; B.76 6.25 g/ha a.s.,55
same,herbicidal activity against SETVI found,[6]; B.76 12.5 g/ha a.s.,40
"CC(C)N.O=C(O)CNCP(=O)(O)O [B.97, glyphosate-isopropylammonium, reference compound]",herbicidal activity against ECHCG found,[7]; B.97 135 g/ha a.s.,85
"CCC(CC)Nc1c([N+](=O)[O-])cc(C)c(C)c1[N+](=O)[O-] [B.102, pendimethalin, reference compound]",herbicidal activity against STEME found,[8]; B.102 400 g/ha a.s.,75
"COC[C@H](C)N(C(=O)CCl)c1c(C)csc1C [B.107, dimethenamid-P, reference compound]",herbicidal activity against SETVI found,[9]; B.107 15 g/ha a.s.,70
same,herbicidal activity against PANDI found,[5]; B.107 15 g/ha a.s.,95
"Cn1nc(C(F)(F)F)c(CS(=O)(=O)C2=NOC(C)(C)C2)c1OC(F)F [B.117, pyroxasulfone, reference compound]",herbicidal activity against LAMAM found,[10]; B.117 6.25 g/ha a.s.,35
same,herbicidal activity against STEME found,[8]; B.117 6.25 g/ha a.s.,60
"C#CCN1C(=O)C(F)(F)Oc2cc(F)c(N3C(=O)C4=C(CCCC4)C3=O)cc21 [Ia18, 2-(2,2,7-Trifluoro-3-oxo-4-prop-2-ynyl-3,4-dihydro-2H-benzo[1,4]oxazin-6-yl)-4,5,6,7-tetrahydro-isoindole-1,3-dione]",herbicidal activity against SETVI found,[9]; Ia18 25 g/ha a.s.,90
same,herbicidal activity against LAMAM found,[10]; Ia18 12.5 g/ha a.s.,80
same,herbicidal activity against Amaranthus retroflexus,[11],very good herbicidal activity (a very good herbicidal activity is given at values of at least 85)
same,herbicidal activity against Erigeron canadensis,[12],very good herbicidal activity (a very good herbicidal activity is given at values of at least 85)
same,herbicidal activity against SETFA found,[3]; Ia18 6.25 g/ha a.s.,70
same,herbicidal activity against ABUTH found,[4]; Ia18 12.5 g/ha a.s.,55
same,herbicidal activity against STEME found,[8]; Ia18 12.5 g/ha a.s.,65
same,herbicidal activity against STEME found,[8]; Ia18 13 g/ha a.s.,65
same,herbicidal activity against Pharbitis purpurea,[13],very good herbicidal activity (a very good herbicidal activity is given at values of at least 85)
same,herbicidal activity against Abutilon theophrasti,[14],very good herbicidal activity (a very good herbicidal activity is given at values of at least 85)
same,herbicidal activity against Ambrosia elatior,[15],very good herbicidal activity (a very good herbicidal activity is given at values of at least 85)
same,herbicidal activity against Chenopodium album,[16],very good herbicidal activity (a very good herbicidal activity is given at values of at least 85)
same,herbicidal activity against PANDI found,[5]; Ia18 12.5 g/ha a.s.,70
same,herbicidal activity against PANDI found,[5]; Ia18 25 g/ha a.s.,95
same,herbicidal activity against DIGSA found,[1]; Ia18 6.25 g/ha a.s.,20
same,herbicidal activity against ECHCG found,[7]; Ia18 6.25 g/ha a.s.,30
same,herbicidal activity against BRAPL found,[2]; Ia18 6.25 g/ha a.s.,25
same,herbicidal activity against SETVI found,[6]; Ia18 6.25 g/ha a.s.,55

# From patent US8445407B2, “Herbicidal tetrahydrophthalimides” (BASF SE, priority 2009, dated 2013)
